Reference: patent US20240294460A1, “DEUTERATED ANALOGS AND DERIVATIVES OF 4-BROMO-2,5-DIMETHOXYPHEN[…] USES THEREOF” (Terran Biosciences Inc., priority 2021, published 2024)
“And” between values parts separate entries of the source, which are not always exact repeats. Equal values may be shown once. Where a name gives a salt, the structure may show the parent alone.

Experiment: Metabolic stability in human liver microsomes
Conditions: substrate 1 μM, NADPH 1 mM, 37° C., 0-45 min; for microsomal CLint at 1 μM / half-life at 1 μM: human, microsomes; for microsomal CLint at 1 μM: pH 7.4, CLint; for half-life at 1 μM: pH 7.4, t1/2, pooled human liver microsomes 0.5 mg/mL
Method: Pooled human liver microsomes were purchased from a commercial supplier. Microsomes were stored at −80° C. prior to use. […] A minus cofactor control incubation was included for each test compound where 0.1 M phosphate buffer pH 7.4 was added instead of NADPH (minus NADPH). Two control compounds (dextromethorphan and verapamil) were included with each test compound. All incubations were performed individually for each test compound. […] The reactions were stopped by transferring incubate into acetonitrile at the appropriate time points, in a 1:3 ratio. The termination plates were then centrifuged at 3,000 rpm for 20 min at 4° C. to precipitate the protein.
From a plot of ln peak area ratio (test compound peak area/internal standard peak area) against time, the gradient of the line was determined.
Elimination rate constant (k)=(−gradient)
where V=Incubation volume (μL)/Microsomal protein (mg).

[1] = pooled human liver microsomes 0.5 mg/mL

| Structure (SMILES) | microsomal CLint at 1 μM [1] | half-life at 1 μM | CLint [1] | t1/2 [1] |
| --- | --- | --- | --- | --- |
| Cl.[2H]C([2H])([2H])Oc1cc(CCN)c(OC)cc1Br [2-(4-Bromo-2-methoxy-5-(methoxy-d3)phenyl)ethan-1-amine hydrochloride] | 9.22 µL/min/mg | 150 min |  |  |
| Cl.[2H]C([2H])([2H])Oc1cc(C([2H])([2H])C([2H])([2H])N)c(OC)cc1Br [2-(4-bromo-2-methoxy-5-(methoxy-d3)phenyl)ethan-1,1,2,2-d4-1-amine hydrochloride] | 10.5 µL/min/mg | 132 min |  |  |
| Cl.[2H]C([2H])(N)Cc1cc(OC([2H])([2H])[2H])c(Br)cc1OC [2-(4-bromo-2-methoxy-5-(methoxy-d3)phenyl)ethan-1,1-d2-1-amine hydrochloride] | 10.9 µL/min/mg | 127 min |  |  |
| Cl.[2H]C([2H])([2H])Oc1cc(Br)c(OC)cc1C([2H])([2H])C([2H])([2H])N [2-(4-bromo-5-methoxy-2-(methoxy-d3)phenyl)ethan-1,1,2,2-d4-1-amine hydrochloride] | 11.9 µL/min/mg | 117 min |  |  |
| Cl.[2H]C([2H])(N)Cc1cc(OC)c(Br)cc1OC([2H])([2H])[2H] [2-(4-bromo-5-methoxy-2-(methoxy-d3)phenyl)ethan-1,1-d2-1-amine hydrochloride] | 12.4 µL/min/mg | 112 min |  |  |
| Cl.[2H]C([2H])([2H])Oc1cc(Br)c(OC)cc1CCN [2-(4-bromo-5-methoxy-2-(methoxy-d3)phenyl)ethan-1-amine hydrochloride] | 18.2 µL/min/mg | 76.3 min |  |  |
| COc1cc(CCN)c(OC)cc1Br [2C-B HCl salt, 4-bromo-2,5-dimethoxyphenethylamine, reference compound] | 9.56 µL/min/mg | 145 min |  |  |
| COc1ccc2c(c1)[C@]13CCCC[C@@H]1[C@H](C2)N(C)CC3 [dextromethorphan, reference compound] | 51.2 µL/min/mg | 27.1 min | 53.0 μL/min/mg protein and 55.0 μL/min/mg protein | 26.2 min and 25.2 min |
